Reference: patent publication US20170101392A1, “PROCESSES FOR THE PREPARATION OF PESTICIDAL COMPOUNDS” (Dow AgroSciences LLC, priority 2013, published 2017)

Columns and labels:
[1] = test system: Green Peach Aphid ("GPA") (Myzus Persicae) (MYZUPE); assay: Bioassay on green peach aphid (GPA), foliar spray on infested cabbage seedlings; type: in vivo; conditions: 72 h, 200 ppm spray on cabbage leaves, live aphids counted after three days, Abbott's correction, read-out: MYZUPE rating (% Control of Mortality)
Excerpt: Bioassays on Green Peach Aphid (“GPA”) (Myzus Persicae) (MYZUPE.)
GPA is the most significant aphid pest of peach trees, causing decreased growth, shriveling of leaves, and the death of various tissues. It is also hazardous because it acts as a vector for the transport of plant viruses, such as potato virus Y and potato leafroll virus to members of the nightshade/potato family Solanaceae, and various mosaic viruses to many other food crops. GPA attacks such plants as broccoli, burdock, cabbage, carrot, cauliflower, daikon, eggplant, green beans, lettuce, macadamia, papaya, peppers, sweet potatoes, tomatoes, watercress and zucchini among other plants. GPA also attacks many ornamental crops such as carnations, chrysanthemum, flowering white cabbage, poinsettia and roses. GPA has developed resistance to many pesticides.
Several molecules disclosed herein were tested against GPA using procedures described below.
Cabbage seedling grown in 3-in pots, with 2-3 small (3-5 cm) true leaves, were used as test substrate. The seedlings were infested with […] (wingless adult and nymph stages) one day prior to chemical application. Four posts with individual seedlings were used for each treatment. Test compounds (2 mg) were dissolved in 2 mL of acetone/methanol (1:1) solvent, forming stock solutions of 1000 ppm test compound. The stock solutions were diluted 5× with 0.025% Tween 20 in water to obtain the solution at 200 ppm test compound. A hand-held aspirator-type sprayer was used for spraying a solution to both sides of the cabbage leaves until runoff. Reference plants (solvent check) were sprayed with the diluent only containing 20% by volume acetone/methanol (1:1) solvent. Treated plants were held in a holding room for three days at approximately 25° C. and ambient relative humidity (RH) prior to grading. Evaluation was conducted by counting the number of live aphids per plant under a microscope. Percent Control was measured by using Abbott's correction formula (W. S. Abbott, “A Method of Computing the Effectiveness of an Insecticide” J. Econ. Entomol 18 (1925), pp. 265-267) as follows.
Corrected % Control=100*(X−Y)/X • where • X=No. of live aphids on solvent check plants and • Y=No. of live aphids on treated plants
The results are indicated in the table entitled “Table 1: GPA (MYZUPE) and sweetpotato whitefly-crawler (BEMITA) Rating Table”.

[2] = test system: Sweetpotato Whitefly Crawler (Bemisia Tabaci) (BEMITA); assay: Bioassay on sweetpotato whitefly crawler, foliar spray on infested cotton plants; type: in vivo; conditions: 200 ppm spray on cotton leaves, live nymphs counted after 8-9 days, Abbott's correction, read-out: BEMITA rating (% Control of Mortality)
Excerpt: Bioassays on Sweetpotato Whitefly Crawler (Bemisia Tabaci) (BEMITA.)
The sweetpotato whitefly, Bemisia tabaci (Gennadius), has been recorded in the United States since the late 1800s. In 1986 in Florida, Bemisia tabaci became an extreme economic pest. Whiteflies usually feed on the lower surface of their host plant leaves. From the egg hatches a minute crawler stage that moves about the leaf until it inserts its microscopic, threadlike mouthparts to feed by sucking sap from the phloem. Adults and nymphs excrete honeydew (largely plant sugars from feeding on phloem), a sticky, viscous liquid in which dark sooty molds grow. Heavy infestations of adults and their progeny can cause seedling death, or reduction in vigor and yield of older plants, due simply to sap removal. The honeydew can stick cotton lint together, making it more difficult to gin and therefore reducing its value. Sooty mold grows on honeydew-covered substrates, obscuring the leaf and reducing photosynthesis, and reducing fruit quality grade. It transmitted plant-pathogenic viruses that had never affected cultivated crops and induced plant physiological disorders, such as tomato irregular ripening and squash silverleaf disorder. Whiteflies are resistant to many formerly effective insecticides.
Cotton plants grown in 3-inch pots, with 1 small (3-5 cm) true leaf, were used at test substrate. The plants were placed in a room with whitely adults. Adults were allowed to deposit eggs for 2-3 days. After a 2-3 day egg-laying period, plants were taken from the adult whitefly room. Adults were blown off leaves using a hand-held Devilbliss sprayer (23 psi). Plants with egg infestation (100-300 eggs per plant) were placed in a holding room for 5-6 days at 82° F. and 50% RH for egg hatch and crawler stage to develop. Four cotton plants were used for each treatment. Compounds (2 mg) were dissolved in 1 mL of acetone solvent, forming stock solutions of 2000 ppm. The stock solutions were diluted 10× with 0.025% Tween 20 in water to obtain a test solution at 200 ppm. A hand-held Devilbliss sprayer was used for spraying a solution to both sides of cotton leaf until runoff. Reference plants (solvent check) were sprayed with the diluent only. Treated plants were held in a holding room for 8-9 days at approximately 82° F. and 50% RH prior to grading. Evaluation was conducted by counting the number of live nymphs per plant under a microscope.

| Structure (SMILES) | mortality at 200 ppm [1] | mortality at 200 ppm [2] |
| --- | --- | --- |
| CCN(C(=O)CCSCCC(F)(F)F)c1cn(-c2cccnc2)nc1Cl [Compound 8.5, N-(3-Chloro-1-(pyridin-3-yl)-1H-pyrazol-4-yl)-N-ethyl-3-((3,3,3-trifluropropyl)thio)propanamide] | 80 to 100% | 80 to 100% |
| CCN(C(=O)CC[S+]([O-])CCC(F)(F)F)c1cn(-c2cccnc2)nc1Cl (stereo not shown) [Compound 9.5, N-(3-Chloro-1-(pyridin-3-yl)-1H-pyrazol-4-yl)-N-ethyl-3-((3,3,3-trifluropropyl)sulfoxo)propanamide] | 80 to 100% | 80 to 100% |
| ClC1=NN(c2cccnc2)CC1 [Compound 5a, 3-(3-Chloro-4,5-dihydro-1H-pyrazol-1-yl)pyridine] | 0 to 80% | 0 to 80% |
| O=C(CCCl)Nc1cn(-c2cccnc2)nc1Cl [Compound 5e, 3-Chloro-N-(3-chloro-1-(pyridine-3-yl)-1H-pyrazol-4-yl)propanamide] | 80 to 100% | 80 to 100% |
| O=C(CCSCCC(F)(F)F)Nc1cn(-c2cccnc2)nc1Cl [Compound 5.5, N-(3-Chloro-1-(pyridin-3-yl)-1H-pyrazol-4-yl)-3-((3,3,3-trifluoropropyl)thio)-propanamide] | 80 to 100% | 0 to 80% |
